This is an account of results in patent publication US20090203685A1, “ANTI-PROLIFERATIVE COMPOUNDS FROM A 3-ARYL-COUMARINE OR 3-ARYL-QUINOLIN-2-ONE AND USES THEREOF” (EOS (ETHICAL ONCOLOGY SCIENCE) S.P.A., priority 2006, published 2009).

Several values for one entry are separate records, joined by “and”; a condition that tells them apart may be missing. Identical values can stand only once. Counter-ions that a name gives are not always drawn.

Experiment [1] has as its system U937 cells. Put plainly: Proliferation test ViaLight HS, U937 cells (Example 8). The note with it: 72 h incubation, range = multiple experiments, otherwise individual experiments. The class given is cell-based, human. The protocol: 2C Proliferation test ViaLight® HS High Sensitivity Cytotoxicity and Cell Proliferation BioAssay Kit
This protocol allows the determination of the cytostatic and cytotoxic activities of compounds to be tested on mammalian cells in culture and was carried out essentially according to the manufacturer's recommendations.
Cells are suspended in 15 mL of their respective media and are enumerated. They are then diluted in their media in order to obtain: • 2500 cells per 90 μL per well for MRC5 cells • 5000 cells per 90 μL per well for all other cell lines. Cells are then seeded in a 96 well plate, and incubated at least 4 hours in the incubator at 37° C. in 5% CO2.
The molecules to be tested are diluted in DMEM with DMSO in order to obtain the following dilutions: • dilution at 250 μM/1% DMSO • dilution at 50 μM/1% DMSO • dilution at […] • dilution at 2 μM/1% DMSO • dilution at 400 nM/1% DMSO • dilution at 80 nM/1% DMSO For each well comprising 90 μL of cell suspension, 10 μL of a solution of the compound to be tested is added, with the 6 different concentrations. The plate is then incubated during 72 hours. One control plate is contacted with 10 μL of DMEM 1% DMSO, without compound to be tested. 50 μL of lysis buffer (test Vialight® lysis buffer) is added in each well of the control plate and the plate is incubated 10 minutes under hood.
Then, 100 μL of test buffer (test Vialight® test buffer) is added in each well and the control plate is incubated during 2 minutes. The luminescence is read in each well. The mean luminescence for each type of cells is called T0.
After the 72 h incubation, in order to determine the viability, 50 μL of lysis buffer (test Vialight® lysis buffer) is added in each well of the plates and the plates are incubated 10 minutes under hood.
Then, 100 μL of test buffer (test Vialight® test buffer) is added in each well and the plates are incubated during 2 minutes. The luminescence is read in each well. For each type of cell, the mean luminescence in the well not containing the compound is called C72 and the mean luminescence in well containing a given concentration of a compound to be tested is called T72. For each dilution (concentration of compound to be tested), T0 and T72 values are compared.
The graph is plotted for the different concentrations of compound and • GI50 (50% of growth inhibitory) is determined, this is the dose producing 50% of cell growth (intersection at Y=50); • TGI (total growth inhibitory) is determined on the graph, this is the dose producing the total arrest of the cell growth (intersection at Y=0); and • LC50 (50% of lethal concentration) is determined, this is the dose producing the death of 50% of the cells (intersection at Y=−50).
Following the protocol described in Example 2C, different compounds according to the invention have been tested for their cytostatic and cytotoxic activities on mammalian cells in culture (specifically U937 cells).
The GI50 (50% of growth inhibitory) has been determined for all the following compounds, i.e. the dose producing 50% of cell growth inhibition.
Where the GI50 provided is in the form of a range, it means that multiple experiments, whose results fall within the range indicated, were performed. Otherwise, results of individual experiments are provided.

The target in experiment [2] is T1, interaction between 6×His-Bcl-xL and GST-BF8 (Homo sapiens, UniProt Q07817).
T1 construct: made in house; host or cells: E. coli
As to the kind of experiment: Pull down assay, Bcl-xL/BF8 in vitro interaction. The class given is binding. The note with it: 50 μM, 5% DMSO; Western blot. The protocol:
FIG. 3: Inhibition of the interaction between Bcl-xL and BF8, a peptide aptamer that targets the hydrophobic groove of BCL-2 family members. […]
C+: 6×His-Bcl-xL captured by GST-BF8, in presence of 5% DMSO. (02): 6×His-Bcl-xL captured by GST-BF8, in presence of 50 μM of compound 02 (in 5% DMSO). (01): 6×His-Bcl-xL captured by GST-BF8, in presence of 50 μM of compound 01 (in 5% DMSO).
A peptide aptamer (dubbed BF8) has been selected against the anti-apoptotic protein Bfl1, member of the BCL-2 family. […] Two lines of evidence indicate that BF8 binds the hydrophobic groove of anti-apoptotic BCL-2-like proteins. First, the amino-acid sequence of its variable region bears similarities with the sequence of the BH3 domains of pro-apoptotic members of the BCL-2 family (such as Bak or Bax), known to bind the anti-apoptotic proteins via this hydrophobic groove. Second, BF8 no longer binds a mutated variant of Bfl-1 that bears an amino-acid substitution within the said hydrophobic groove.
A Bcl-xL/BF8 in vitro interaction assay was developed to examine the capacity of the compounds of the invention to disrupt this interaction by competition with the peptide aptamer. 6×His-Bcl-xL and GST-BF8 recombinant fusion proteins were expressed in E. coli and purified using affinity chromatography. […]

T1 sequence (Q07817 whole entry): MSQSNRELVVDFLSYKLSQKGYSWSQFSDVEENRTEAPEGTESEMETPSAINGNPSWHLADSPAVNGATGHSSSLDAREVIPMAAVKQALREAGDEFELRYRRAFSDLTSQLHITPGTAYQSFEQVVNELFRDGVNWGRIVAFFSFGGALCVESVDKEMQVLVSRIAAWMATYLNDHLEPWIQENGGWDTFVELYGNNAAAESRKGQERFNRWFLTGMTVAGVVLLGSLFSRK

In general, GI50 refers to the concentration at which growth is held to half of that of the control. A lower GI50 goes with greater sensitivity of the cells. On to `COc1cc(NC(=S)NC(=O)c2ccccc2)ccc1-c1cc2ccccc2oc1=O` [Compound 02, N-({[3-methoxy-4-(2-oxo-2H-chromen-3-yl)phenyl]amino}carbonothioyl)benzamide], for which, in experiment [1] (Homo sapiens, U-937, 72 h), the GI50 lay within 600 to 860 nM. Further, in experiment [2], the “Inhibition of the in vitro interaction between 6×His-Bcl-xL and GST-BF8” value is given as “inhibit”.
In turn, `COc1cc(NC(=O)Nc2ccccc2)ccc1-c1cc2ccccc2oc1=O` [Compound 03, 1-[3-methoxy-4-(2-oxo-2H-chromen-3-yl)-phenyl]-3-phenyl-urea] gave a GI50 in experiment [1] (Homo sapiens, U-937, 72 h) of 610 nM.
Regarding `COc1cc(NC(=S)NC(=O)c2ccc(F)cc2)ccc1-c1cc2ccccc2oc1=O` [Compound 05, 4-fluoro-N-({[3-methoxy-4-(2-oxo-2H-chromen-3-yl)phenyl]amino}carbonothioyl)benzamide], the GI50 is 1500 nM in experiment [1] and 920 nM in experiment [1] (Homo sapiens, U-937, 72 h).
For the compound `COc1cc(NC(=O)Nc2ccc(N(C)C)cc2)ccc1-c1cc2ccccc2oc1=O` [Compound 06, 1-(4-dimethylamino-phenyl)-3-[3-methoxy-4-(2-oxo-2H-chromen-3-yl)-phenyl]-urea.HCl], the GI50 in experiment [1] stood at 580 nM; in experiment [1] (Homo sapiens, U-937, 72 h), 320 nM.
On the same counts, the results for `COc1cc(NC(=N)NC(=O)c2ccccc2)ccc1-c1cc2ccccc2oc1=O` [Compound 07, N-(imino{[3-methoxy-4-(2-oxo-2H-chromen-3-yl)phenyl]amino}methyl)benzamide] are 800 nM and 630 nM.
In experiment [1] (Homo sapiens, U-937, 72 h), `COc1cc(NC(=S)Nc2ccc(N3CCOCC3)nc2)ccc1-c1cc2ccccc2oc1=O` [Compound 08, 1-[3-methoxy-4-(2-oxo-2H-chromen-3-yl)-phenyl]-3-(6-morpholin-4-yl-pyridin-3-yl)-thiourea] yielded a GI50 of 1200 nM.
The compound `COC(=O)c1ccc(S(=O)(=O)Nc2ccc(-c3cc4ccccc4oc3=O)c(OC)c2)n1C` [Compound 09, methyl 5-({[3-methoxy-4-(2-oxo-2H-chromen-3-yl)phenyl]amino}sulfonyl)-1-methyl-1H-pyrrole-2-carboxylate] displayed a GI50 in experiment [1] (Homo sapiens, U-937, 72 h) of 500 to 600 nM.
Take `COc1cc(NC(=N)NC(=O)/C=C/c2ccco2)ccc1-c1cc2ccccc2oc1=O` [Compound 12, (2E)-3-(2-furyl)-N-(imino{[3-methoxy-4-(2-oxo-2H-chromen-3-yl)phenyl]amino}methyl)acrylamide]: in experiment [1] (Homo sapiens, U-937, 72 h), the GI50 was 1600 to 2100 nM.
In the case of `COc1cc(NS(=O)(=O)c2cc(C)oc2C)ccc1-c1cc2ccccc2oc1=O` [Compound 13, N-[3-methoxy-4-(2-oxo-2H-chromen-3-yl)phenyl]-2,5-dimethylfuran-3-sulfonamide], the concentration for 50% growth inhibition (GI50) in experiment [1] (Homo sapiens, U-937, 72 h) was 100 nM.
Turning to `COc1cc(/N=C(/NC(=O)/C=C/c2ccco2)SC)ccc1-c1cc2ccccc2oc1=O` [Compound 14, methyl N-[(2E)-3-(2-furyl)prop-2-enoyl]-Ar-[3-methoxy-4-(2-oxo-2H-chromen-3-yl)phenyl]imidothiocarbamate], the GI50 in experiment [1] (Homo sapiens, U-937, 72 h) stood at 220 nM.
As for `COc1cc(NC(=S)NC(=O)/C=C/c2ccco2)ccc1-c1cc2ccccc2[nH]c1=O` [Compound 15, (2E)-3-(2-furyl)-N-({[3-methoxy-4-(2-oxo-1,2-dihydroquinolin-3-yl)phenyl]amino}carbonothioyl)acrylamide], in experiment [1], the 50% growth inhibitory concentration (GI50) is 63 nM and 210 nM.
With `COc1cc(NC(=S)NC(=O)/C=C/c2ccco2)ccc1-c1cc2ccccc2n(C)c1=O` [Compound 17, (2E)-3-(2-furyl)-N-({[3-methoxy-4-(1-methyl-2-oxo-1,2-dihydroquinolin-3-yl)phenyl]amino}carbonothioyl)acrylamide], in experiment [1] (Homo sapiens, U-937, 72 h), the GI50 is 45 nM.
Take `COc1cc(NC(=O)Nc2cccc(N(C)C)c2)ccc1-c1cc2ccccc2oc1=O` [Compound 18, 1-(3-dimethylamino-phenyl)-3-[3-methoxy-4-(2-oxo-2H-chromen-3-yl)-phenyl]-urea.HCl]: in experiment [1] (Homo sapiens, U-937, 72 h), the GI50 was found to be 150 nM.
In experiment [1] (Homo sapiens, U-937, 72 h), `COc1cc(N(C)C(=N)NC(=O)/C=C/c2ccco2)ccc1-c1cc2ccccc2oc1=O` [Compound 19, N′-((E)-3-furan-2-yl-acryloyl)-N-[3-methoxy-4-(2-oxo-2H-chromen-3-yl)-phenyl]-N-methyl-guanidine] showed a GI50 of 9200 nM. This GI50 lies about 61-fold higher than the previous one.
`COc1cc(NC(=S)Nc2ccc(N3CCOCC3)cc2)ccc1-c1cc2ccccc2oc1=O` [Compound 20, 1-[3-methoxy-4-(2-oxo-2H-chromen-3-yl)-phenyl]-3-(4-morpholin-4-yl-phenyl)-thiourea] yielded a 50% growth inhibitory concentration (GI50) in experiment [1] (Homo sapiens, U-937, 72 h) of 1100 nM.
In the case of `COc1cc(NC(=S)NC(=O)/C=C/c2ccco2)ccc1-c1cc2ccccc2n(CCO)c1=O` [Compound 21, 1-((E)-3-furan-2-yl-acryloyl)-3-{4-[1-(2-hydroxy-ethyl)-2-oxo-1,2-dihydro-quinolin-3-yl]-3-methoxy-phenyl}-thiourea], the GI50 in experiment [1] (Homo sapiens, U-937, 72 h) is ~90 nM.
With `COc1cc(NC(=N)NC(=O)c2ccccc2)ccc1-c1cc2ccccc2[nH]c1=O` [Compound 22, N-Benzoyl-N′-[3-methoxy-4-(2-oxo-1,2-dihydro-quinolin-3-yl)-phenyl]-guanidine], in experiment [1] (Homo sapiens, U-937, 72 h), the GI50 was 1000 nM.
As for `COc1cc(N(C(C)=O)S(=O)(=O)c2cc(C)oc2C)ccc1-c1cc2ccccc2oc1=O` [Compound 23, 2,5-dimethyl-furan-3-sulfonic acid acetyl-[3-methoxy-4-(2-oxo-2H-chromen-3-yl)-phenyl]-amide], the GI50 in experiment [1] (Homo sapiens, U-937, 72 h) was ~500 nM.
Turning to `COc1cc(/N=C(\SC)N(C)C(=O)/C=C/c2ccco2)ccc1-c1cc2ccccc2oc1=O` [Compound 24, 1-((E)-3-furan-2-yl-acryloyl)-3-[3-methoxy-4-(2-oxo-2H-chromen-3-yl)-phenyl]-1,2-dimethyl-isothiourea], growth in experiment [1] (Homo sapiens, U-937, 72 h) was halved (GI50) at 33 nM.
`COc1cc(/N=C(\SC)N(C)C(=O)c2ccc(F)cc2)ccc1-c1cc2ccccc2oc1=O` [Compound 25, 1-(4-fluoro-benzoyl)-3-[3-methoxy-4-(2-oxo-2H-chromen-3-yl)-phenyl]-1,2-dimethyl-isothiourea] showed a GI50 in experiment [1] (Homo sapiens, U-937, 72 h) of 410 nM.
